Measurements: patent US20250008996A1, “Flavored Food and Beverage Products” (Firmenich SA, priority 2014, published 2025)

Tests used:
Assay type in all cases: in vivo
[1] = Sweetness intensity in 150 ppm Reb.A in water, four trained experts (Example 9)
Method: Example 9: Three samples were prepared and compared with 150 ppm Reb.A (PureCircle) in water; equisweet to 3.5% sucrose (in red, FIG. 9). The first sample comprised 150 ppm Reb.A with 10 ppm Naringenin. The second sample was a 150 ppm Reb.A with 25 ppm Naringenin. The third sample comprised 150 ppm Reb.A with 50 ppm Naringenin. All samples were tested for sweetness intensity at room Temperature by four experts especially trained to evaluate sweet products.

[2] = Sweetness intensity in 300 ppm Reb.A in water, four trained experts (Example 10)
Method: Example 10: Six samples were prepared and compared with 300 ppm Reb.A in water; 100% sweetness level (in red, FIG. 10). The first sample comprised 300 ppm Reb. A with 10 ppm Naringenin. The second sample was a 300 ppm Reb.A with 25 ppm Naringenin. The third sample was a 300 ppm Reb.A with 50 ppm Naringenin. The fourth sample comprised 300 ppm Reb.A with 75 ppm Naringenin. The fifth sample was a 300 ppm Reb.A with 100 ppm Naringenin. The sixth sample was a 300 ppm Reb.A with 150 ppm Naringenin. All samples were tested for sweetness intensity at room Temperature by four experts especially trained to evaluate sweet products. […] On the other hand, the addition of 100 and 150 ppm Naringenin to 300 ppm Reb.A solution has a small loss of sweetness (8%).

[3] = Tasting of Naringenin alone and combined with sweeteners (summary statements); conditions: combined with other sweeteners, some embodiments
Method: However, when combined with others sweeteners, Naringenin provides sweetness enhancement to composition comprising a sweetener. In some embodiments, Naringenin provides a sweetness equivalent to 1-2° brix of sucrose equivalents.

[4] = Sweetness intensity in sucrose solution, thirty participants (Example 2); conditions: 125 ppm Naringenin in 5% sucrose solution in water
Method: Example 2. Two samples were prepared. The first sample was a 6% sucrose solution in water. The second sample was a 5% sucrose solution in water with 125 ppm Naringenin. The samples were tested for sweetness intensity by thirty participants.

| Compound | sweetness intensity reached, as sucrose level ([1]; 50 ppm Naringenin in 150 ppm Reb.A solution, room temperature) [% sucrose] | equisweet Reb.A level in water ([2]; 10 to 75 ppm Naringenin in 300 ppm Reb.A solution) [ppm Reb.A] | sweetness enhancement effect ([2]; 10 to 75 ppm Naringenin in 300 ppm Reb.A solution, 300 ppm Reb.A = 100%) [%] | loss of sweetness ([2]; 100 and 150 ppm Naringenin in 300 ppm Reb.A solution, 300 ppm Reb.A = 100%) [%] | sweetness provided, sucrose equivalents [3] | sweetness level reached, as sucrose solution without Naringenin [4] [% sucrose] | equisweet sucrose level ([1]; 150 ppm Reb.A in water without Naringenin) [% sucrose] |
| --- | --- | --- | --- | --- | --- | --- | --- |
| O=C1C[C@@H](c2ccc(O)cc2)Oc2cc(O)cc(O)c21 [Naringenin, 2,3-Dihydro-5,7-dihydroxy-2(-4-hydroxyphenyl)-4H-1-bcmzopyran-4-one] | 4 | 350 | 17 | 8 | 1-2 ° brix of sucrose equivalents | ~6 |  |
| C=C1C[C@@]23CC[C@H]4[C@@](C)(CCC[C@@]4(C)C(=O)O[C@@H]4O[C@H](CO)[C@@H](O)[C@H](O)[C@H]4O)[C@@H]2CC[C@]1(O[C@@H]1O[C@H](CO)[C@@H](O)[C@H](O[C@@H]2O[C@H](CO)[C@@H](O)[C@H](O)[C@H]2O)[C@H]1O[C@@H]1O[C@H](CO)[C@@H](O)[C@H](O)[C@H]1O)C3 [Reb.A, rebaudioside A, reference compound] |  |  |  |  |  |  | 3.5 |
